Like-named read-outs stand apart in the source and are kept apart here.
Tests used:
UTI89 biofilm = test: UTI89 type 1 dependent biofilm formation (inhibition/prevention) assay on PVC, crystal violet; format: cell-based, uropathogenic E. coli UTI89; settings: Escherichia coli
How it was run: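 Prevention: UTI89 grown in LB in PVC wells at 23° C with mannoside at varying concentrations for 48 h, then crystal violet stained and quantified. Disruption: 24 h UTI89 biofilm, mannoside added, grown 16 h more, then crystal violet.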

FimH lectin domain = biological target: T1, FimH lectin domain (Escherichia coli, UniProt P08191); test: biochemical; format: binding, E. coli
T1 construct: made by biotinylating FimH lectin domain^25 at a 1:1 molar ratio with NHS-PEO4-Biotin
Method: Samples or buffer (200 μL per well) were dispensed into 96-well microtiter plates (Greiner Bio-One, Monroe N.C.) and maintained at 30° C. with 1000 RPM shaking. Pre-manufactured pins for individual assays were made by biotinylating FimH lectin domain^25 at a 1:1 molar ratio with NHS-PEO4-Biotin (Thermo Fisher, Rockford Ill.), diluting it to 50 μg/ml in 20 mM HEPES pH 7.5, 150 mM NaCl (HBS), immobilizing it on high-binding streptavidin-coated biosensor tips (Super Streptavidin, ForteBio, Inc., Menlo Park, Calif.) for 10 minutes at 30° C., blocking the pins with 10 μg/ml biocytin for 2 minutes, washing in HBS for 1 hour, and rinsing in 15% sucrose in HBS. Pins were then air dried for 30 minutes and stored in their original packaging with a dessicant packet. Assays were performed by re-wetting premade pins with HBS for 15 minutes, then storing them in fresh HBS until use. […] Each experimental pin was referenced to a biocytin-blocked pin to control for instrument drift and a second biocytin-blocked pin that was passed through a duplicate experiment in the same 96-well plate to control for nonspecific binding of the compound to the pin. Kinetics data and affinity constants were generated automatically by the global fitting protocol in ForteBio Data Analysis version 6.3.

[1] = biological target: T2, FimH lectin domain (residues 1-158 of UPEC J96 FimH) (Escherichia coli, UniProt P08191); format: binding
T2 construct: made in house
Method: DSF measures the melting temperature change of protein when binding to small molecules. Melting temperature shifts are proportional to the free energy of binding, and melting temperatures increase even as ligand concentration exceeds the Kd.
FimH lectin domain (residues 1-158 of UPEC J96 FimH, without an affinity tag) was purified as described previously. Five micrograms FimH in 5 μl HBS were mixed with HBS to yield a final volume of 50 μl containing compound at a final concentration of 100 μM and a “5×” final concentration of SYPRO Orange (sold as a “5000×” stock in DMSO and mixed with HBS to a working stock of 50× immediately before use: Life Technologies Inc.; Grand Island, N.Y.). Compounds were diluted to 100 μM from stocks in DMSO and compared to matched control wells with FimH alone plus 0.2% DMSO. 50 μl reactions were placed in 96-well clear-bottom PCR plates and subjected to a melt curve from 20-90° C. in 0.5° C. increments of 15 seconds each followed by a fluorescence read of the “HEX” channel in a Bio-Rad CFX96 thermocycler (Bio-Rad, Hercules, Calif.). Melt curves were fitted to the Boltzmann equation to determine the melting temperature (Tm) (y=A2+(A1−A2)/(1+exp((x−x0)/dx)) where x0 is the Tm) using OriginPro 8 (OriginLab, Northampton Mass.).

FimH [2] = biological target: T3, FimH (Escherichia coli, UniProt Q1R2J4); settings: for HAI Titer EC>50: Table 21;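 on all read-outs here: hemagglutination inhibition of guinea pig erythrocytes agglutinated by type 1 piliated uropathogenic E. coli via FimH mannose binding, quantified through serial dilutions of compound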
[3] = format: in vitro ADME; settings: for PAMPA (LogPe): pH 7.4
Method: Materials. The assay was carried out using Multiscreen PVDF 96-well plates (Millipore, Billerica, Mass.) using the company's Transporter Receiver Plate. The lipid (dioleyoylphosphotidylcholine (DOPC):Stearic Acid (80:20, wt %) in dodecane was obtained from Avanti Polar lipids (Alabaster, Ala.). Hank's Buffered Salt Solution (HBSS), pH 7.4 was obtained from MediaTech (Manassas, Va.).
Methods. Each of the test compounds was diluted to 2.5 mM in DMSO (Sigma, St Louis, Mo.) and further diluted prior to testing to 2.5 μM in HBSS, pH 7.4. The assay was performed using a Millipore 96-well Multiscreen-IP PAMPA plate, 5 μl of the lipid suspension was directly added to the PVDF membrane of the filter plate. Immediately following the addition of the lipid to the membrane, 200 μl of HBSS solution containing the test compound was added to the donor (upper) chamber. HBSS (300 μl) is also added to the receiver plate and the filter and receiver plates assembled and incubated overnight at room temperature in a moistened sealed bag to prevent evaporation. The concentration in the receiver plate as well as an equilibrium plate, that represents a theoretical, partition-free sample, was determined by HPLC-tandem mass spectrometry. Analysis of each compound was performed in triplicate.
Analysis. Analysis of both the acceptor and equilibrium samples were performed using an AB 3200 triple quadripole mass spectrometer linked to a Shimadzu DGU-20A HPLC with a Prevail C18 column (3 μm, 2.1×10 mm) with a flow rate of 0.35 ml/min. The mobile phase used was A: 0.1% Formic Acid in water, B: 0.1% Formic Acid in methanol. The elation gradient method is described in the table. Data acquisition and peak height determination was performed using Analyst v.1.4.2.
Calculations. The login of the effective permeability (LogPe) was calculated using the following equation
[formula] [formula] Where the drug concentration is the peak areas for the analyte and VD and VA is the volume of the donor and acceptor compartment respectively. The area is the surface area of the PVDF membrane (0.11 cm^2) and time is the incubation in seconds (64,800 sec). Each value is the mean of triplicates performed on the same day.

FimH [4] = biological target: T3, FimH; test: cell-based; settings: read-out: HAI Titer EC90
[5] = read-out: Biofilm Prevention IC50
[6] = Table 17, Examples 30-36 numbering
[7] = Table 20, Examples 30-36 numbering

CNC(=O)c1cccc(-c2ccc(O[C@H]3O[C@H](CO)[C@@H](O)[C@H](O)[C@@H]3O)cc2)c1 [Compound 2]
IC50 (UTI89 biofilm; [5]): 1350 nM | IC50 (UTI89 biofilm; read-out: biofilm inhibition IC50): 1350 nM | Kd (FimH lectin domain): 0.1 nM | Kd, qualitative (FimH lectin domain): picomolar range | DSF Melting Temp. ([1]; Table 20, compound at 100 μM): 73.38 °C | HAI Titer EC>90 (FimH [2]; [6]): 0.50 µM | HAI Titer EC>90 (FimH [2]; [7]): 0.500 µM

OCC1OC(Oc2ccc(-c3ccc(O)cc3)cc2)C(O)C(O)C1O (stereo not drawn) [Compound 3ZFH26, 2-(hydroxymethyl)-6-[4-(4-hydroxyphenyl)phenoxy]tetrahydropyran-3,4,5-triol]
PAMPA (LogPe) ([3]; 64800 sec, […]): −8.890

O=[N+]([O-])c1ccc(COC2OC(CO)C(O)C(O)C2O)cc1 (stereo not drawn) [Compound 5b]
LogPe ([3]; PAMPA): −3.89 | PAMPA (LogPe) [3]: −3.89

COC(=O)c1cccc(O[C@H]2O[C@H](CO)[C@@H](O)[C@H](O)[C@@H]2O)c1 [Compound 32]
Kd (FimH lectin domain; Table 20, read-out: Octet Kd): 2.72 nM | DSF Melting Temp. ([1]; Table 20, compound at 100 μM): 70.75 °C | HAI Titer EC>90 (FimH [2]; [7]): 6.000 µM

CNC(=O)c1cc(C(=O)NC)cc(-c2ccc(OC3O[C@@H](CO)[C@@H](O)[C@H](O)[C@H]3O)c(C(F)(F)F)c2)c1 (stereo partly drawn) [Compound 1JWJ149, N1,N3-dimethyl-5-[3-(trifluoromethyl)-4-[(3R,4S,5S,6S)-3,4,5-trihydroxy-6-(hydroxymethyl)tetrahydropyran-2-yl]oxy-phenyl]benzene-1,3-dicarboxamide]
IC50 (UTI89 biofilm; [5]): 43 nM | DSF Melting Temp. ([1]; Table 21): 76.15 C. | PAMPA (LogPe) ([3]; 64800 sec, […]): −6.27 | HAI Titer EC>90 (FimH [2]): 0.008 µM | HAI Titer EC>50 (FimH [2]; ZFH/JWJ codes): 0.008 µM | HAI Titer EC>90 (FimH [2]; Table 22, ZFH/JWJ codes): 0.008 µM

CNC(=O)c1cccc(-c2ccc(OC3O[C@@H](CO)[C@@H](O)[C@H](O)[C@H]3O)c(C)c2)c1 (stereo partly drawn) [Compound 4ZFH269, N-methyl-3-[3-methyl-4-[(3R,4S,5S,6S)-3,4,5-trihydroxy-6-(hydroxymethyl)tetrahydropyran-2-yl]oxy-phenyl]benzamide]
IC50 (UTI89 biofilm; [5]): 159 nM | DSF Melting Temp. ([1]; Table 21): 74.46 C. | PAMPA (LogPe) ([3]; 64800 sec, […]): −3.89 | HAI Titer EC>90 (FimH [2]): 0.062 µM | HAI Titer EC>50 (FimH [2]; ZFH/JWJ codes): 0.06 µM | HAI Titer EC>90 (FimH [2]; Table 22, ZFH/JWJ codes): 0.062 µM

COC(=O)c1cccc(-c2ccc(OC3OC(CO)C(O)C(O)C3O)cc2)c1 (stereo not drawn) [Compound 2ZFH236]
PAMPA (LogPe) ([3]; 64800 sec, […]): −4.250 | HAI Titer EC>50 (FimH [2]): >2500 µM

OC[C@H]1O[C@H](Oc2ccc3ccccc3c2)[C@@H](O)[C@@H](O)[C@@H]1O [Compound 31]
Kd (FimH lectin domain; Table 20, read-out: Octet Kd): 2.72 nM | DSF Melting Temp. ([1]; Table 20, compound at 100 μM): 70.75 °C | HAI Titer EC>90 (FimH [2]; [7]): 6.000 µM

COC(=O)c1cccc(-c2ccc(O[C@H]3O[C@H](CO)[C@@H](O)[C@H](O)[C@@H]3O)c(C(F)(F)F)c2)c1 [Compound 4d, Methyl 3-[3-(trifluoromethyl)-4-[(2R,3S,4S,5S,6R)-3,4,5-trihydroxy-6-(hydroxymethyl)tetrahydropyran-2-yl]oxy-phenyl]benzoate]
IC50 (UTI89 biofilm; [5]): 170 nM | PAMPA (LogPe) ([3]; 64800 sec, […]): −3.91 | EC90 (FimH [4]): 30 nM | HAI Titer EC>90 (FimH [2]; [6]): 0.03 µM

COC(=O)c1cccc(-c2ccc(OC3O[C@@H](CO)[C@@H](O)[C@H](O)[C@H]3O)c(C(F)(F)F)c2)c1 (stereo partly drawn) [Compound 4ZFH222, methyl 3-[3-(trifluoromethyl)-4-[(3R,4S,5S,6S)-3,4,5-trihydroxy-6-(hydroxymethyl)tetrahydropyran-2-yl]oxy-phenyl]benzoate]
IC50 (UTI89 biofilm; [5]): 8170 nM | PAMPA (LogPe) ([3]; 64800 sec, […]): −3.91 | HAI Titer EC>90 (FimH [2]): 0.032 µM | HAI Titer EC>50 (FimH [2]; ZFH/JWJ codes): 0.032 µM | HAI Titer EC>90 (FimH [2]; Table 22, ZFH/JWJ codes): 0.032 µM

NC(=O)Nc1ccc(-c2ccc(OC3O[C@@H](CO)[C@@H](O)[C@H](O)[C@H]3O)cc2)cc1 (stereo partly drawn) [Compound 4ZFH218, [4-[4-[(3R,4S,5S,6S)-3,4,5-trihydroxy-6-(hydroxymethyl)tetrahydropyran-2-yl]oxyphenyl]phenyl]urea]
PAMPA (LogPe) ([3]; 64800 sec, […]): −4.35 | HAI Titer EC>90 (FimH [2]): 3.000 µM | HAI Titer EC>50 (FimH [2]; ZFH/JWJ codes): 3.000 µM | HAI Titer EC>90 (FimH [2]; Table 22, ZFH/JWJ codes): 3.000 µM

CNS(=O)(=O)c1cccc(-c2ccc(O[C@H]3O[C@H](CO)[C@@H](O)[C@H](O)[C@@H]3O)cc2)c1 [Compound 19]
Kd (FimH lectin domain; Table 20, read-out: Octet Kd): 0.49 nM | DSF Melting Temp. ([1]; Table 20, compound at 100 μM): 72.05 °C | HAI Titer EC>90 (FimH [2]; [7]): 1.000 µM

O=C(O)c1cccc(-c2ccc(O[C@H]3O[C@H](CO)[C@@H](O)[C@H](O)[C@@H]3O)cc2)c1 [Compound 30]
Kd (FimH lectin domain; Table 20, read-out: Octet Kd): 2.21 nM | DSF Melting Temp. ([1]; Table 20, compound at 100 μM): 70.93 °C | HAI Titer EC>90 (FimH [2]; [7]): 4.000 µM

COC(=O)c1cccc(-c2ccc(O[C@H]3O[C@H](CO)[C@@H](O)[C@H](O)[C@@H]3O)c(Cl)c2)c1 [Compound 4b, Methyl 3-[3-chloro-4-[(2R,3S,4S,5S,6R)-3,4,5-trihydroxy-6-(hydroxymethyl)tetrahydropyran-2-yl]oxy-phenyl]benzoate]
IC50 (UTI89 biofilm; [5]): 260 nM | PAMPA (LogPe) ([3]; 64800 sec, […]): −4.29 | EC90 (FimH [4]): 30 nM | HAI Titer EC>90 (FimH [2]; [6]): 0.03 µM | fold better HAI activity (FimH [2]; relative to matched pair 1, Examples 30-36 numbering): more than 30 fold
